Results taken from WO2016087994A1, “Btk inhibitors to treat solid tumors through modulation of the tumor microenvironment” (dated 2016).
“Also recorded” adds a separate entry of the source. Like-named read-outs stand apart in the source and are kept apart here.

How the values were obtained:
[1] = tested on: GPVI platelet aggregation; assay: GPVI (convulxin-induced) human platelet aggregation; format: cell-based
[2] = tested on: human platelet-mediated thrombosis; assay: In vivo human platelet thrombus formation after laser injury in VWF HA1 mice; design: species or system human platelets in VWF HA1 mice
[3] = tested on: KrasG12D;Trp53R172H;Pdx1-Cre (KPC) derived pancreatic tumor; assay: Orthotopic pancreatic cancer model (KPC-derived cell line); format: in vivo, C57BL/6 mice; details: oral 15 mg/kg
ID8 ovarian cancer = assay: ID8 syngeneic orthotopic ovarian cancer model; format: in vivo, mouse; details: 15 mg/kg/BID oral
[4] = tested on: KPC derived mouse pancreatic cancer cells; assay: KPC-derived mouse pancreatic cancer cells injected into pancreas, Formula (II) and/or gemcitabine; format: in vivo; details: Formula (II) 15 mg/kg/BID oral; gemcitabine 15 mg/kg IV every 4 days x3
[5] = tested on: KPC pancreatic tumors (KRAS, p53); assay: KPC genetic pancreatic cancer model; format: in vivo, mouse
[6] = tested on: NK cells with trastuzumab-coated HER18 breast cancer cells; assay: Trastuzumab-dependent NK cell IFN-γ secretion; format: cell-based, human; details: trastuzumab-stimulated
[7] = tested on: NK cells with rituximab-coated DHL4 lymphoma cells; assay: Rituximab-dependent NK cell degranulation (CD107a); format: cell-based, human
[8] = tested on: NK cells with trastuzumab-coated HER18 breast cancer cells; assay: Trastuzumab-dependent NK cell degranulation (CD107a); format: cell-based, human; details: trastuzumab-stimulated
[9] = tested on: rituximab-coated Raji cells; assay: Rituximab ADCC, chromium release, Raji targets; format: cell-based, human; details: 1 μM; healthy donor NK cells / Raji
primary CLL cells = assay: Rituximab ADCC, chromium release, primary CLL targets; format: cell-based, human; details: 1 μM; NK cells from CLL patients, autologous CLL cells
Itk kinase = target: T1, Itk kinase (Homo sapiens, UniProt Q08881); assay: Kinome screen, Itk; format: biochemical; details: see Table 2 (missing)
T1 construct: Life Technologies (performed the screen, or the value is from the literature)

[10] = tested on: EGF receptor phosphorylation (p-EGFR), A431 cells; assay: In vitro EGFR phosphorylation in A431 cells; format: cell-based, human; details: 10 μM
[11] = Functional observation battery; format: in vivo, rats; details: doses through 300 mg/kg
[12] = Respiratory function study; format: in vivo, rats; details: doses through 300 mg/kg
[13] = Cardiovascular function study in telemeterized dogs; format: in vivo, male beagle dogs; details: single doses through 30 mg/kg
CYP3A4 = CYP3A4 (Homo sapiens, UniProt P08684); assay: CYP metabolism (loss of parent drug); format: in vitro ADME; details: in vitro
hepatocytes = assay: Metabolism in hepatocytes with 14C-labeled Formula (II); format: in vitro ADME, mouse, rat, dog, rabbit, monkey, and human
[14] = In vivo metabolism in plasma, bile and urine; design: species or system rats, dogs, and monkeys; details: bile, urine, preliminary
[15] = Glutathione binding in vitro; format: in vitro ADME
CYP enzymes = assay: Nonclinical CYP interaction studies; format: in vitro ADME
[16] = tested on: B cell receptor (CD69 on CD19+ B cells); assay: Inhibition of BCR signaling (CD69) on B cells in whole blood; format: cell-based; details: Homo sapiens, 18 h
relapsed/refractory CLL = assay: Clinical study of Formula (II) in relapsed/refractory CLL
[17] = tested on: PBMC subsets (MDSC, NK cells); assay: Peripheral blood cell subsets in CLL patients by flow cytometry; format: in vivo, human; details: C1D28, C2D28
apoptotic B-CLL = assay: Apoptosis of B-CLL cells in treated CLL patients; format: in vivo, human
CXCL12 and CCL2 = assay: Plasma chemokines in treated CLL patients; format: in vivo, human
BTK = target: T2, BTK (Mus musculus, UniProt P35991); assay: BTK occupancy in MDSCs of tumor bearing PDA mice; format: in vivo; details: 15 mg/kg BID, Day 8, 4 hours post dose, N=5
T2 construct: MDSCs were purified from tumor bearing PDA mice; from tissue; host or cells: granulocytic and monocytic MDSCs from tumor-bearing PDA mice

KrasLA2 NSCLC tumors = assay: KrasLA2 genetic NSCLC model; format: in vivo, mouse
CD4 + T cells = assay: Th17 and Treg development of CD4+ T cells; format: cell-based
CD8 + T cells [18] = assay: CD8+ T cell viability; format: cell-based; details: higher concentrations of ibrutinib; any concentration of Formula (II)
[19] = tested on: CD8 + T cells with B lymphoblast targets; assay: Cytotoxic T cell (CTL) assay; format: cell-based; details: 500 nM, relative to vehicle
CD8 + T cells [20] = assay: CD8+ T cell IFN-γ levels; format: cell-based; details: relative to vehicle
[21] = Brain and CSF pharmacokinetics in Sprague-Dawley rats; format: in vivo; details: rat
[22] = tested on: NK cells (CD56+/CD107a+) with MEC-1 cells; assay: Obinutuzumab-stimulated NK cell degranulation in whole blood; format: cell-based, human; details: obinutuzumab 1 μg/mL; 0.1, 1, 10 μM
A3 adenosine receptor = A3 adenosine receptor (Homo sapiens, UniProt P0DMS8)
Sequence of A3 adenosine receptor (P0DMS8 whole entry): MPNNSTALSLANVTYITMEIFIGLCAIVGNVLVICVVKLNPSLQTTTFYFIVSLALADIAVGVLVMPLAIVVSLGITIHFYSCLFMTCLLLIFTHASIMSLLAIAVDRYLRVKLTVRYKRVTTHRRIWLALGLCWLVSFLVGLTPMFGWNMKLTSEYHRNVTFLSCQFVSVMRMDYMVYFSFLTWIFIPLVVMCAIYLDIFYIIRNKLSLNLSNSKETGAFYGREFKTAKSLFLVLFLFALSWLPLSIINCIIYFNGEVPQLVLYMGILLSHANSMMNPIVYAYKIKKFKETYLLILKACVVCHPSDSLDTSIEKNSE

T2 sequence (P35991 whole entry): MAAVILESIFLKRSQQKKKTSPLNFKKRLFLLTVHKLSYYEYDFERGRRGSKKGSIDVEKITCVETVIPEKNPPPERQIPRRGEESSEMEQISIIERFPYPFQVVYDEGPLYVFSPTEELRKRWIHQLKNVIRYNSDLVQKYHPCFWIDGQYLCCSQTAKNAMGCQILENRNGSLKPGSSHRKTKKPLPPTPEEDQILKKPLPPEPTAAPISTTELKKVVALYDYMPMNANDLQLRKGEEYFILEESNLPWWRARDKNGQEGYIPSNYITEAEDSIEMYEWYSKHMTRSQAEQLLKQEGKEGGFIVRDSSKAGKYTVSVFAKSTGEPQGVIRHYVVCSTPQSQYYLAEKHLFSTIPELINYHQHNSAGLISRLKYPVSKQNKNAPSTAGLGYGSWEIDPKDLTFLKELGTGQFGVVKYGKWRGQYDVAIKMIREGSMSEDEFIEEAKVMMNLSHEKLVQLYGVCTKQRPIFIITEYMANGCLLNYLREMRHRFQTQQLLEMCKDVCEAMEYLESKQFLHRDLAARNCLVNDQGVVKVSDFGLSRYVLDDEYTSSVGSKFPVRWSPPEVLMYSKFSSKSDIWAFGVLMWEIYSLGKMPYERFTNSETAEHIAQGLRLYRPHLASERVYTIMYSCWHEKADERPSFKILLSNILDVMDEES
Sequence of CYP3A4 (P08684 whole entry): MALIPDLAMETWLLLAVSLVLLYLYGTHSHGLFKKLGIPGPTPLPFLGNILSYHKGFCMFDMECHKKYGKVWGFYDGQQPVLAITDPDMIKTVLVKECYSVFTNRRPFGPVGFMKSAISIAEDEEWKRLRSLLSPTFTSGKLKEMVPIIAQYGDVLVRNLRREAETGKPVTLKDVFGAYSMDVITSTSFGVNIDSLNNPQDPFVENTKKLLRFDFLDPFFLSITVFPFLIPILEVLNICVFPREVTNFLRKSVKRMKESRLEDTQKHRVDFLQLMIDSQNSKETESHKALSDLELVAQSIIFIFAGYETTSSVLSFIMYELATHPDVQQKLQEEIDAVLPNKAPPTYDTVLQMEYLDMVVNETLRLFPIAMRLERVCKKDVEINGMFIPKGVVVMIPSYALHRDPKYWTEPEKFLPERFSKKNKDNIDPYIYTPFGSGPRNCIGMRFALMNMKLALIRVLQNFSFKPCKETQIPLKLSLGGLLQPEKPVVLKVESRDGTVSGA
T1 sequence (Q08881 whole entry): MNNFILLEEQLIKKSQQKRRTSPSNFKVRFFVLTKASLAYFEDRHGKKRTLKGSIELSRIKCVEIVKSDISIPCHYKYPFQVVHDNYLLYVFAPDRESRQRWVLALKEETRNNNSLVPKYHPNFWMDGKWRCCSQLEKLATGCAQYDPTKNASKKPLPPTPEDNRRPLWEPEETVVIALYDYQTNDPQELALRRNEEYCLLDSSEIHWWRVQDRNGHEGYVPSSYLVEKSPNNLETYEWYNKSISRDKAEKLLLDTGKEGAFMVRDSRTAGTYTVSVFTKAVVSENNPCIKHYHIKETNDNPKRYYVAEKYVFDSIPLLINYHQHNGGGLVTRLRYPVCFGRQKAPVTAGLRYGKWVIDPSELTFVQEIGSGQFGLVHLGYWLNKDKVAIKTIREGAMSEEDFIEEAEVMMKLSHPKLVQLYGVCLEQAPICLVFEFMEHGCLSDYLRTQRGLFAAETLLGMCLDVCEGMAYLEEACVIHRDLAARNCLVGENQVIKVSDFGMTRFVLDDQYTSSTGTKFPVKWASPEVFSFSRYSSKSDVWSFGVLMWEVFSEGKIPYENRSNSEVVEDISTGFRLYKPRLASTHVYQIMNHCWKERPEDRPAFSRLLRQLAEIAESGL

## CC#CC(=O)N1CCC[C@H]1c1nc(-c2ccc(C(=O)Nc3ccccn3)cc2)c2c(N)nccn12 [Formula (II), (<S)-4-(8-amino-3-(l-(but-2-ynoyl)pyrrolidin-2-yl)imidazo[l,5-a]pyrazin-l-yl)-N-(pyridin-2-yl)benzamide]
[1]
  inhibition of GPVI platelet aggregation (in words): does not
[1]; Homo sapiens, Platelet, read-out: IC50, GPVI platelet aggregation
  IC50: 1150 nM
[2]
  effect on thrombus formation (in words): does not interfere with thrombus formation; also recorded: no significant effect on human platelet-mediated thrombus formation
[3]
  immature myeloid infiltrate (in words): decreased immature myeloid infiltrate
  immunosuppressive tumor associated myeloid cells and Tregs (in words): reduce immunosuppressive tumor associated myeloid cells and Tregs
  number of Tregs (in words): reduced the number of immunospressive Tregs
  number of tumor associated macrophages (in words): reduced the number of tumor associated macrophages
  tumor burden (in words): significantly reduced tumor burden
[3]; vs vehicle
  tumor volume (in words): statistically significant reductions in tumor volume
ID8 ovarian cancer
  B cells (in words): significant reduction in total B cells; also recorded: significant reduction in immunosuppressive B cells
  B regulatory cells (Bregs) (in words): significant reduction in B regulatory cells (Bregs)
  CD8+ T cells (in words): increase in CD8 + T cells
  ID8 ovarian cancer growth (in words): impairs ID8 ovarian cancer growth
  tumor associated Tregs (in words): significant reduction in immunosuppressive tumor associated Tregs
  tumor-associated lymphocytes (in words): significant reduction in immunosuppressive tumor-associated lymphocytes
[4]
  reduction in tumor size (in words): efficacy alone
[5]; 15 mg/kg BID oral
  survival at day 14: 6/6
  survival at day 28: 5/6
[5]; 15 mg/kg BID oral, combination with gemcitabine 50 mg/kg IV
  tumor growth and survival (in words): substantially slowed pancreatic cancer growth and increased animal survival; also recorded: compared favorably with gemcitabine alone
[5]; 15 mg/kg BID oral, predose 165
  tumor volume, day 28, average: 272 mm3
[5]; tumor tissue
  CD8+ cells (in words): significant increase in CD8 + cells
  MDSCs (Gr1+Ly6CHi) (in words): significantly reduced
  TAMs (CD11b+Ly6ClowF4/80+Csf1r+) (in words): significantly reduced
  Tregs (CD4+CD25+FoxP3+) (in words): significantly reduced
[6]
  NK cell cytokine release (in words): no inhibitory effect
[7]; rituximab-stimulated, 240 min
  reduction of NK cell degranulation: < 2%
[7]; rituximab, Formula (II) 1 μM
  NK cell degranulation (in words): did not inhibit
[8]
  NK cell degranulation (in words): no inhibitory effect
[9]
  inhibition of rituximab ADCC (in words): not inhibited
Primary CLL cells
  inhibition of rituximab ADCC (in words): not inhibited
Itk kinase
  inhibition of Itk (in words): not a potent inhibitor of Itk kinase
[10]; A431
  inhibition of EGFR phosphorylation (in words): no inhibition
[10]; 2 h, EGF 100 ng/mL 5 min
  EGF-induced p-EGFR inhibition: 7%
[11]
  neurobehavioral effects / body temperature (in words): no adverse effects on neurobehavioral effects or body temperature
[12]
  respiratory function (in words): no treatment-related adverse effects
[13]
  cardiovascular/ECG/body temperature (in words): no meaningful changes in body temperature, cardiovascular, or electrocardiographic (ECG) (including QT interval) parameters
CYP3A4
  CYP metabolism (in words): metabolized by CYP3A4
hepatocytes
  metabolites in hepatocytes (in words): two mono-oxidized metabolites and a glutathione conjugate; also recorded: No unique human metabolite was identified
[14]
  metabolic processes in vivo (in words): oxidation, glutathione binding, and hydrolysis
[15]
  glutathione binding (in words): binds to glutathione but does not deplete glutathione
CYP enzymes
  CYP drug-drug interaction potential (in words): very unlikely to cause clinical drug-drug interactions
[16]
  EC50: 8.2 nM
relapsed/refractory CLL; CLL, compared with ibrutinib
  time to same median % change in SPD: 7 months
relapsed/refractory CLL; FIG. 37
  SPD change vs ibrutinib (in words): decreases more rapidly
  absolute lymphocyte count (ALC) change vs ibrutinib (in words): much smaller relative increase and much faster decrease in absolute lymphocyte count (ALC)
relapsed/refractory CLL; human, in vivo
  adverse event grade (in words): only grade 1 AEs were observed
  disease progression in 17p deletion patients (in words): no 17p patients have progressed
  dose-limiting toxicities (in words): No DLTs were observed; also recorded: has not demonstrated any DLTs to date
  lymphocytosis (in words): A lack of lymphocytosis
  treatment-related serious adverse events (in words): No treatment-related serious adverse events (SAEs) were observed
[17]
  MDSC (monocytic) change vs ALC (in words): patients with decreasing ALC % had increasing MDSC (monocytic) %
  NK cell change vs ALC (in words): patients with decreasing ALC % had increasing NK cell %
Apoptotic B-CLL; cleaved PARP+, Caspase 3+, CD19+, CD5+
  samples with baseline change in apoptosis greater than 25%: 82 % of samples
Apoptotic B-CLL; human, in vivo
  apoptosis of B-CLL (in words): increased apoptotis
CXCL12 and CCL2
  CCL2 levels (in words): significant decrease
  CXCL12 levels (in words): significant decrease
BTK
  BTK occupancy in granulocytic and monocytic MDSC (in words): Complete BTK occupancy
KrasLA2 NSCLC tumors; 15 mg/kg
  number of tumors (in words): fewer overall tumors
  tumor volumes vs vehicle (in words): significant decrease in tumor volumes
KrasLA2 NSCLC tumors; mouse, in vivo
  MDSCs (in words): significant reduction in immunosuppressive tumor associated MDSCs
  TAMs (in words): significant reduction in immunosuppressive tumor associated TAMs
  Tregs (in words): significant reduction in immunosuppressive tumor associated Tregs
CD4 + T cells
  Th17 development (in words): no adverse effects
  Treg development (in words): no adverse effects
CD8 + T cells [18]
  CD8+ T cell viability (in words): not observed
[19]
  CD8+ T cell function as % cytotoxicity (in words): no effect on CD8 + T cell function
CD8 + T cells [20]
  CD8+ T cell function as IFN-γ level (in words): no effect on CD8 + T cell function
[21]; brain, flushed brains, 5 or 30 mg/kg/day oral gavage, 30 min after dosing, read-out: brain concentration relative to matched plasma
  Kp at 0.5 h: 0.03 to 0.04
[21]; csf, 5 and 30 mg/kg/day oral gavage, read-out: CSF concentration relative to plasma
  Kp at 0.5 h: 0.01 to 0.02
[21]; in vivo
  levels in brain and CSF (in words): crosses the blood-brain barrier; also recorded: low but detectable levels
[22]
  obinutuzumab-stimulated NK cell degranulation (in words): minimal effect
A3 adenosine receptor
  activity in 80-target binding screen (in words): significant activity only against the A3 adenosine receptor
